In paper PMC6662757, “A small molecule inhibitor of ER-to-cytosol protein dislocation exhibits anti-dengue and anti-Zika virus activity” (Scientific Reports, 2019):

Assays:
OS9 = target: T1, OS9 (Homo sapiens, UniProt Q13438); assay: cellular thermal shift assay (CETSA), immunoblot; assay type: cell-based; details: HeLa cells treated with 10 µM CP26, 37 °C, 2 h, then lysed in 0.4% NP-40 and heated 3 min; direct target within the Hrd1 complex not defined
T1 construct: endogenous protein in HeLa cells, heated in NP-40 lysate; component of the Hrd1 complex
T1 sequence (Q13438 26-667): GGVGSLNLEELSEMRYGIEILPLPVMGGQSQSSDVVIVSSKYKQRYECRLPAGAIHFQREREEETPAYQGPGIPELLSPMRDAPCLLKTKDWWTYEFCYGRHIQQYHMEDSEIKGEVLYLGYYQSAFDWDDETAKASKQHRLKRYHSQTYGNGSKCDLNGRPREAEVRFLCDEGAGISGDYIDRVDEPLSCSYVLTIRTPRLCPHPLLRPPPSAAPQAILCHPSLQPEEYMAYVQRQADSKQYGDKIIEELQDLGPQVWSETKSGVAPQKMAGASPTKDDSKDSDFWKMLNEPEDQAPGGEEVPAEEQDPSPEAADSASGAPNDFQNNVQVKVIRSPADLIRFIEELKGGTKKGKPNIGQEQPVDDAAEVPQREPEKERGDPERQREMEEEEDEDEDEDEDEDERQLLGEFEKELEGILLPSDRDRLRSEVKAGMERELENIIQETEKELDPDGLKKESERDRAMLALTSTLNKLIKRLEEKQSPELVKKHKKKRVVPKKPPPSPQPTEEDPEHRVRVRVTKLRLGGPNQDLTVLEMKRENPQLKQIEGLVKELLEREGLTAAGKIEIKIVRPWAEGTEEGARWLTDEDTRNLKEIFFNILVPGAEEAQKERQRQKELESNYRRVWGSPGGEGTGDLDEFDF

Derlin2 = target: T2, Derlin2 (Homo sapiens, UniProt Q9GZP9); assay: cellular thermal shift assay (CETSA), immunoblot; assay type: cell-based; details: HeLa cells treated with 10 µM CP26, 37 °C, 2 h, then lysed in 0.4% NP-40 and heated 3 min; direct target within the Hrd1 complex not defined
T2 construct: gene DERL2; endogenous protein in HeLa cells, heated in NP-40 lysate; component of the Hrd1 complex
T2 sequence (Q9GZP9 1-239): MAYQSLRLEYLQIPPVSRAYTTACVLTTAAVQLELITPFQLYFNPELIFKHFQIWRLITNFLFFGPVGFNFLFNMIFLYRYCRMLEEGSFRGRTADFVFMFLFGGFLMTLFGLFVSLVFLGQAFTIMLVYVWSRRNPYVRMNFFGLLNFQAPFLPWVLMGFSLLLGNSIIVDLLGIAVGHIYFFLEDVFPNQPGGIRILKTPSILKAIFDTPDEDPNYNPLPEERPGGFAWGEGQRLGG

For Cc1ccc(C=C2C(Cl)=C(Cl)C(Cl)=C2Cl)cc1 [CP26, 1-methyl-4-[(2,3,4,5-tetrachlorocyclopenta-2,4-dien-1-ylidene)methyl]benzene], the thermal stability increase (OS9) was “CP26 selectively increased the thermal stability of Derlin2 and OS9” and the thermal stability increase (Derlin2) was “CP26 selectively increased the thermal stability of Derlin2 and OS9”.
